Assay results from patent US20170258871A1, “COMBINED USE OF A TRKA INHIBITOR AND AN EPHA2 INHIBITOR FOR USING IN THE TREATMENT OF SOLID CANCERS, AND METHOD FOR THE PROGNOSIS OF SURVIVAL OF A PATIENT WHO HAS A SOLID CANCER” (UNIVERSITE DES SCIENCES ET TECHNOLOGIES DE LILLE, priority 2014, published 2017).

Tests used:
[1] = system: MDA-MB-231 HA-TrkA tumours; assay: Xenograft of MDA-MB-231 HA-TrkA in SCID mice, tumour volume (Experiment 1); format: in vivo; conditions: 3 injections every 3 days from day 14; CEP-701 10 mg/kg intraperitoneal, siEphA2 7.5 microg/mouse close to the tumour
Experimental: FIG. 9: A study of the inhibition of TrkA and EphA2 on tumour development in vivo. The tumours were developed without any intervention for 14 days and then subjected to 3 injections (every 3 days, black arrows) of solvent (control), CEP-701 (10 mg/kg), siEphA2 (7.5 microg/mouse) or CEP-701 (10 mg/kg) and siEphA2 (7.5 microg/mouse). The experiments were stopped 31 days after the first injection of the treatment for ethical considerations after the death of the control mice. A) The tumour volumes were evaluated by measuring the length (;) and the width (w) and then calculating the volume using the formula π/6×l×W×(l+w)/2; the Mann and Whitney test was carried out between the control group and CEP-701 (a), between the control groups and siEphA2 (b), between the control groups and CEP-701+siEphA2 (c), and between the groups siEphA2 and CEP-701+siEphA2 (d)*, P<0.05; **, P<0.01; ns: not significant. B) Study of the inhibition of the expression of receptors by siRNA on the overall survival of SCID mice. […] The tumour volumes were evaluated by measuring the length (l) and width (w) and then calculating the volume using the formula π/6×l×W×(l+w)/2. […] Significance was measured using the log-rank test (P=0.0022). […]
Experiment 1: the mice used were six-week old SCID females. […] The tumour volume was measured according to the following formula: π/6×length×width×(width+length)/2. […]

Akt = assay: Western blot of Akt phosphorylation in MDA-MB-231 cells; format: cell-based; conditions: for effect on Akt activation induced by proNGF: proNGF N.C. 30 min, 10 nM K252a, 15 μM LY294002, 50 nM SKI-1 or siEphA2
Experimental: (§1) FIG. 8: A study of the role of TrkA and EphA2 in the activation of proteins Akt and Src. Cells MDA-MB-231 were respectively treated with a TrkA inhibitor (K252a), an anti-EphA2 siRNA (siEphA2), an inhibitor of PI3-K (LY294002) and an inhibitor of Src (SKI-1).
(§2) A and D. Cells MDA-MB-231 HA-TrkA were treated with proNGF N.C. […] The phosphorylation of Akt and Src was determined by using phospho-specific antibodies. The equal charge was verified using Akt and Src antibodies.
(§3) C and F. The phosphorylation of Akt and Src was determined in the total lysates coming from cells MDA-MB-231 transfected with siEphA2 and treated for 30 minutes with proNGF N.C. (C) or NGF (F).
(§4) After treatment, the cells were lysed (lysis buffer: 40 mM HEPES pH 7.5; 1 mM EDTA pH 8.0; 120 mM NaCl; 10 mM NaPPi; 50 mM NaF; 1.5 mM Na3VO4; 1% Triton X 100; 0.1% SDS; 1 mM PMSF; 10% glycerol and 1/100 th of protease inhibitor cocktail (Sigma) (20 min; 4° C.)). The lysates were recovered and clarified by centrifugation (12,000 g; 10 min; 4° C.). The supernatant was then stored at −80° C. until use. The protein extracts were diluted to 2 μg·μL−1 in a Laemmli 1× buffer (7 min; 100° C.) then deposited and separated on SDS-PAGE (concentration gel 3.6% acrylamide and separation gel 7.5% to 10% acrylamide (thickness 1 mm); 180 V; 10 min then 200 V constant; until output of the migration front). The proteins separated by SDS-PAGE were transferred according to the semi-dry transfer method (buffer: 48 mM Tris base, 39 mM glycine, 1.64 mM SDS, 20% methanol (v/v); 14 V; 15 min per gel) or liquid (buffer: 25 mM Tris base and 192 mM glycine; 15% methanol (v/v); 100 V; 30 min) on nitrocellulose membranes (0.45 μm; Whatman; Germany) or PVDF (0.45 μm; Immobilon P; Millipore; France). The PVDF membrane was “activated” beforehand (methanol; 10 min; 20° C.). The membranes were then saturated (TBS-T; 5% BSA; 1 h; 20° C.) then incubated (16 h; 4° C.) with the chosen primary antibody. […] The membranes were placed in an image analyser (LAS 4000; Fuji) connected to a computer which allowed image generation (software Image Reader LAS 4000).
(§5) The antibody against EphA2 was sc-924 (Santa Cruz), the antibody against sortilin was BD Bioscience 612101, the antibody against TrkA was sc 14024 (Santa Cruz), the antibody against HA was MMS-101R (Covance), the antibody against Akt was Cell Signaling 4691, the antibody against phospho-Akt (Ser 473) was Cell Signaling 9271, the antibody against Src was Cell Signaling 2109 (WB), the antibody against PhosphoSrc (Tyr416) was Cell Signaling 2105 and the antibody against actin was Sigma A2066.
(§6) Proteins Akt and Src were both involved in the pro-invasive effect of proNGF. In order to identify the role of TrkA and EphA2 in the activation of proteins Akt and Src, cells MDA-MB-231 were treated respectively with a TrkA inhibitor (K252a), an anti-EphA2 siRNA (siEphA2) the sequence of which is presented in table 1, a PI3-K inhibitor (LY294002) (the activation of Akt in effect underlies that of PI3-K) and an inhibitor of Src (SKI-1).

Src = assay: Western blot of Src phosphorylation in MDA-MB-231 cells; format: cell-based
Experimental: as §1, §2, §3, §4, §5, §6

[2] = system: tumours xenografted with cells MDA-MB-231 overexpressing TrkA; conditions: previously demonstrated, ref (34); cited from earlier work
[3] = NGF 30 min, 10 nM K252a or siEphA2

SMILES	tumour volume / growth of xenografted tumours vs control [1]	effect on Akt phosphorylation induced by NGF (Akt; [3])	effect on Akt activation induced by proNGF (Akt)	effect on Src phosphorylation induced by NGF (Src; [3])	growth of xenografted tumours [2]	effect on Src activation induced by proNGF (Src; proNGF N.C. 30 min, 10 nM K252a, 15 μM LY294002, 50 nM SKI-1 or siEphA2)
C[C@]12O[C@H](C[C@]1(O)CO)n1c3ccccc3c3c4c(c5c6ccccc6n2c5c31)CNC4=O [CEP-701, reference compound]	slightly, but not significantly, reduced					
COC(=O)[C@@]1(O)C[C@H]2O[C@]1(C)n1c3ccccc3c3c4c(c5c6ccccc6n2c5c31)C(=O)NC4 [K252a, reference compound]		inhibited this activation	abolished the activation of Akt	inhibited this activation	reduces the growth of tumours	
COc1cc2ncnc(Nc3ccc(Oc4ccccc4)cc3)c2cc1OC [SKI-1, reference compound]			does not affect the phosphorylation of Akt			inhibition of Src
